Results as given in US7169955B2, “Perfluoroisopropylbenzene derivative” (Nihon Nohyaku Co., Ltd., priority 2000, dated 2007).

Tests used:
Format in all cases: in vivo
[1] = test system: bulrush (Scirpus juncoides Roxb.); test: Herbicidal effect on paddy field weeds pre-emergence; conditions: paddy soil treatment pre-emergence, 5 kg/ha, 21 days after treatment
Description: (§1) Soil was filled into 1/10000 are pots and brought into a state of paddy field, in which seeds of barnyard grass (Echinochloa crus-galli Beauv.) and bulrush (Scirpus juncoides Roxb.) were made to be before germination. The soil in the pots were treated with a solution containing a predetermined dosage of a chemical agent comprising a compound obtained in Reference Example 1 as the active ingredient.
(§2) Twenty one days after the treatment, the herbicidal effect was investigated, the result was compared with that in untreated plot to calculate the weedkilling rate, and the herbicidal effect was judged according to the following criterion.

[2] = test system: barnyard grass (Echinochloa crus-galli Beauv.); test: as above; conditions: paddy soil treatment pre-emergence, 5 kg/ha, 21 days after treatment
Description: as §1, §2

paddy rice = test: Phytotoxicity on paddy rice (paddy field pre-emergence test); conditions: 5 kg/ha, 21 days after treatment
Description: as §1, §2
At the same time, phytotoxicity on paddy rice was investigated, and judged according to the following criterion.

Arabidopsis thaliana [3] = test: Herbicidal effect on upland weeds after emergence; conditions: after emergence (1 to 2 leaved stage) spray, 5 kg/ha, 14 days after treatment
Description: (§3) Polyethylene-made vats having a size of 10 cm (length)×20 cm (width)×5 cm (height) were filled with soil, sown with the seeds of the upland weeds mentioned below and with seeds of soybean plant and wheat as upland crop plants, and then covered with soil. The plants were made to grow up until they reached the 1 to 2 leaved stage, after which an agent comprising a prescribed concentration of a compound obtained in Reference Example 1 as active ingredient was sprayed.
(§4) Fourteen days after the treatment, the herbicidal effect was investigated, from which weed-killing rate was calculated in the same manner as in Reference Example 2 and the results were judged. At the same time, phytotoxicity on soybean plant and wheat was investigated and judged in the same manner as in Reference Example 2.

[4] = test system: bent grass (Agrostis spp.); test: Herbicidal effect on upland weeds after emergence; conditions: after emergence (1 to 2 leaved stage) spray, 5 kg/ha, 14 days after treatment
Description: as §3, §4

[5] = test system: monochoria (Monochoria veginalis); test: Herbicidal effect on upland weeds after emergence; conditions: after emergence (1 to 2 leaved stage) spray, 5 kg/ha, 14 days after treatment
Description: as §3, §4

Arabidopsis thaliana [6] = test: Herbicidal effect on upland weeds pre-emergence; conditions: upland pre-emergence spray, 5 kg/ha, 14 days after treatment
Description: (§5) Polyethylene-made vats having a size of 10 cm (length)×20 cm (width)×5 cm (height) were filled with soil, sown with seeds of Arabidopsis thialiana, bent grass (Agrostis spp.) and monochoria (Monochoria veginalis), and with seeds of wheat and soybean plant as upland crop plants, and then covered with soil. Then, a liquid preparation of an agent comprising a prescribed concentration of a compound obtained in Reference Example 1 as active ingredient was sprayed.
(§6) Fourteen days after the treatment, the herbicidal effect was investigated, from which weed-killing rate was calculated in the same manner as in Reference Example 2, and the herbicidal effect was judged.

[7] = test system: bent grass (Agrostis spp.); test: Herbicidal effect on upland weeds pre-emergence; conditions: upland pre-emergence spray, 5 kg/ha, 14 days after treatment
Description: as §5, §6

[8] = test system: monochoria (Monochoria veginalis); test: Herbicidal effect on upland weeds pre-emergence; conditions: upland pre-emergence spray, 5 kg/ha, 14 days after treatment
Description: as §5, §6

wheat [9] = test: Phytotoxicity on upland crop plants, pre-emergence test; conditions: upland pre-emergence spray, 5 kg/ha, 14 days after treatment
Description: as §5, §6
(§7) At the same time, phytotoxicity on soybean plant and wheat was investigated and judged according to the criterion mentioned in Reference Example 1.

soybean plant [10] = test: as above; conditions: upland pre-emergence spray, 5 kg/ha, 14 days after treatment
Description: as §5, §6, §7

wheat [11] = test: Phytotoxicity on upland crop plants, after-emergence test; conditions: after emergence spray, 5 kg/ha, 14 days after treatment
Description: as §3, §4

soybean plant [12] = test: as above; conditions: after emergence spray, 5 kg/ha, 14 days after treatment
Description: as §3, §4

SMILES: CN(C)C(=O)Nc1ccc(C(F)(C(F)(F)F)C(F)(F)F)cc1 [Reference Example 1, 1,1-dimethyl-3-(4-heptafluoroisopropylphenyl)urea]
- herbicidal effect (rating) [1]: 2 (Weedkilling rate is 40–69%.)
- herbicidal effect (rating) [2]: 4 (Weedkilling rate is 90–99%.)
- phytotoxicity (rating) (paddy rice): 0 (Weedkilling rate is 0–20 (No phytotoxicity).)
- herbicidal effect (rating) (Arabidopsis thaliana [3]): 5 (Weedkilling rate is 100%.)
- herbicidal effect (rating) [4]: 3 (Weedkilling rate is 70–89%.)
- herbicidal effect (rating) [5]: 3 (Weedkilling rate is 70–89%.)
- herbicidal effect (rating) (Arabidopsis thaliana [6]): 5 (Weedkilling rate is 100%.)
- herbicidal effect (rating) [7]: 4 (Weedkilling rate is 90–99%.)
- herbicidal effect (rating) [8]: 5 (Weedkilling rate is 100%.)
- phytotoxicity (rating) (wheat [9]): 0 (Weedkilling rate is 0–20 (No phytotoxicity).)
- phytotoxicity (rating) (soybean plant [10]): 0 (Weedkilling rate is 0–20 (No phytotoxicity).)
- phytotoxicity (rating) (wheat [11]): 0 (Weedkilling rate is 0–20 (No phytotoxicity).)
- phytotoxicity (rating) (soybean plant [12]): 0 (Weedkilling rate is 0–20 (No phytotoxicity).)
